Data from ChEMBL document CHEMBL3046822, “Synthesis, antiplatelet aggregation activity, and molecular modeling study of novel substituted-piperazine analogues” (2011).
The source made the active and inactive calls. The rule behind the calls is not given here.

Experiments:
Platelet [1] = test: Antiaggregating activity in Homo sapiens (human) platelet rich plasma assessed as inhibition of adrenaline-induced platelet aggregation at 0.6 uM incubated for 4 min prior to adrenaline-induction measured for 5.5 min by turbidometric analysis; type: functional, cell-free
[2] = Antiaggregating activity in Homo sapiens (human) platelet rich plasma assessed as ristocetin-induced platelet aggregation at 0.6 uM incubated for 4 min prior to ristocetin-induction measured for 5.5 min by turbidometric analysis (reference value: 65 to 99%); type: functional
Platelet [3] = test: Antiaggregating activity in Homo sapiens (human) platelet rich plasma assessed as inhibition of adrenaline-induced platelet aggregation at 1 uM incubated for 4 min prior to adrenaline-induction measured for 5.5 min by turbidometric analysis; type: functional, cell-free
[4] = Antiaggregating activity in Homo sapiens (human) platelet rich plasma assessed as ADP-induced platelet aggregation at 0.6 uM incubated for 4 min prior to ADP-induction measured for 5.5 min by turbidometric analysis (reference value: 54 to 88%); type: functional
[5] = Antiaggregating activity in Homo sapiens (human) platelet rich plasma assessed as disaggregation of arachidonic acid-induced platelet aggregation at 0.06 uM incubated for 4 min prior to arachidonic acid-induction measured for 5.5 min by turbidometric analysis relative to control; type: functional
[6] = Antiaggregating activity in Homo sapiens (human) platelet rich plasma assessed as ristocetin-induced platelet aggregation at 1 uM incubated for 4 min prior to ristocetin-induction measured for 5.5 min by turbidometric analysis (reference value: 65 to 99%); type: functional
Platelet [7] = test: Antiaggregating activity in Homo sapiens (human) platelet rich plasma assessed as inhibition of collagen-induced platelet aggregation at 3 uM incubated for 4 min prior to collagen-induction measured for 5.5 min by turbidometric analysis; type: functional, cell-free
Platelet [8] = test: Antiaggregating activity in Homo sapiens (human) platelet rich plasma assessed as inhibition of arachidonic acid-induced platelet aggregation at 1 uM incubated for 4 min prior to arachidonic acid-induction measured for 5.5 min by turbidometric analysis; type: functional, cell-free
[9] = Antiaggregating activity in Homo sapiens (human) platelet rich plasma assessed as ADP-induced platelet aggregation at 1 uM incubated for 4 min prior to ADP-induction measured for 5.5 min by turbidometric analysis (reference value: 54 to 88%); type: functional
Platelet [10] = test: Antiaggregating activity in Homo sapiens (human) platelet rich plasma assessed as inhibition of ADP-induced platelet aggregation at 3 uM incubated for 4 min prior to ADP-induction measured for 5.5 min by turbidometric analysis; type: functional, cell-free
Platelet [11] = test: Antiaggregating activity in Homo sapiens (human) platelet rich plasma assessed as inhibition of arachidonic acid-induced platelet aggregation at 3 uM incubated for 4 min prior to arachidonic acid-induction measured for 5.5 min by turbidometric analysis; type: functional, cell-free
Platelet [12] = test: Antiaggregating activity in Homo sapiens (human) platelet rich plasma assessed as inhibition of ristocetin-induced platelet aggregation at 3 uM incubated for 4 min prior to ristocetin-induction measured for 5.5 min by turbidometric analysis; type: functional, cell-free
Platelet [13] = test: Antiaggregating activity in Homo sapiens (human) platelet rich plasma assessed as inhibition of adrenaline-induced platelet aggregation at 3 uM incubated for 4 min prior to adrenaline-induction measured for 5.5 min by turbidometric analysis; type: functional, cell-free
[14] = Antiaggregating activity in Homo sapiens (human) platelet rich plasma assessed as collagen-induced platelet aggregation at 0.6 uM incubated for 4 min prior to collagen-induction measured for 5.5 min by turbidometric analysis (reference value: 50 to 98%); type: functional
[15] = Antiaggregating activity in Homo sapiens (human) platelet rich plasma assessed as collagen-induced platelet aggregation at 1 uM incubated for 4 min prior to collagen-induction measured for 5.5 min by turbidometric analysis (reference value: 50 to 98%); type: functional
Platelet [16] = test: Antiaggregating activity in Homo sapiens (human) platelet rich plasma assessed as inhibition of arachidonic acid-induced platelet aggregation at 0.25 uM incubated for 4 min prior to arachidonic acid-induction measured for 5.5 min by turbidometric analysis; type: functional, cell-free
[17] = Antiaggregating activity in Homo sapiens (human) platelet rich plasma assessed as ADP-induced platelet aggregation at 0.25 uM incubated for 4 min prior to ADP-induction measured for 5.5 min by turbidometric analysis (reference value: 54 to 88%); type: functional
[18] = Antiaggregating activity in Homo sapiens (human) platelet rich plasma assessed as collagen-induced platelet aggregation at 0.125 uM incubated for 4 min prior to collagen-induction measured for 5.5 min by turbidometric analysis (reference value: 50 to 98%); type: functional
Platelet [19] = test: Antiaggregating activity in Homo sapiens (human) platelet rich plasma assessed as inhibition of adrenaline-induced platelet aggregation at 0.5 uM incubated for 4 min prior to adrenaline-induction measured for 5.5 min by turbidometric analysis; type: functional, cell-free
[20] = Antiaggregating activity in Homo sapiens (human) platelet rich plasma assessed as ristocetin-induced platelet aggregation at 0.25 uM incubated for 4 min prior to ristocetin-induction measured for 5.5 min by turbidometric analysis (reference value: 65 to 99%); type: functional
[21] = Antiaggregating activity in Homo sapiens (human) platelet rich plasma assessed as ADP-induced platelet aggregation at 0.125 uM incubated for 4 min prior to ADP-induction measured for 5.5 min by turbidometric analysis (reference value: 54 to 88%); type: functional
[22] = Antiaggregating activity in Homo sapiens (human) platelet rich plasma assessed as collagen-induced platelet aggregation at 0.25 uM incubated for 4 min prior to collagen-induction measured for 5.5 min by turbidometric analysis (reference value: 50 to 98%); type: functional
[23] = Antiaggregating activity in Homo sapiens (human) platelet rich plasma assessed as arachidonic acid-induced platelet aggregation at 0.125 uM incubated for 4 min prior to arachidonic acid-induction measured for 5.5 min by turbidometric analysis (reference value: 55 to 100%); type: functional
Platelet [24] = test: Antiaggregating activity in Homo sapiens (human) platelet rich plasma assessed as inhibition of collagen-induced platelet aggregation at 0.5 uM incubated for 4 min prior to collagen-induction measured for 5.5 min by turbidometric analysis; type: functional, cell-free
Platelet [25] = test: Antiaggregating activity in Homo sapiens (human) platelet rich plasma assessed as inhibition of collagen-induced platelet aggregation at 1 uM incubated for 4 min prior to collagen-induction measured for 5.5 min by turbidometric analysis; type: functional, cell-free
Platelet [26] = test: Antiaggregating activity in Homo sapiens (human) platelet rich plasma assessed as inhibition of adrenaline-induced platelet aggregation at 0.125 uM incubated for 4 min prior to adrenaline-induction measured for 5.5 min by turbidometric analysis; type: functional, cell-free
Platelet [27] = test: Antiaggregating activity in Homo sapiens (human) platelet rich plasma assessed as inhibition of ADP-induced platelet aggregation at 1 uM incubated for 4 min prior to ADP-induction measured for 5.5 min by turbidometric analysis; type: functional, cell-free
[28] = Antiaggregating activity in Homo sapiens (human) platelet rich plasma assessed as ristocetin-induced platelet aggregation at 0.125 uM incubated for 4 min prior to ristocetin-induction measured for 5.5 min by turbidometric analysis (reference value: 65 to 99%); type: functional
[29] = Antiaggregating activity in Homo sapiens (human) platelet rich plasma assessed as disaggregation of ADP-induced platelet aggregation at 0.5 uM incubated for 4 min prior to ADP-induction measured for 5.5 min by turbidometric analysis relative to control; type: functional
Platelet [30] = test: Antiaggregating activity in Homo sapiens (human) platelet rich plasma assessed as inhibition of arachidonic acid-induced platelet aggregation at 0.5 uM incubated for 4 min prior to arachidonic acid-induction measured for 5.5 min by turbidometric analysis; type: functional
[31] = Antiaggregating activity in Homo sapiens (human) platelet rich plasma assessed as ristocetin-induced platelet aggregation at 0.5 uM incubated for 4 min prior to ristocetin-induction measured for 5.5 min by turbidometric analysis (reference value: 65 to 99%); type: functional
Platelet [32] = test: Antiaggregating activity in Homo sapiens (human) platelet rich plasma assessed as inhibition of adrenaline-induced platelet aggregation at 0.25 uM incubated for 4 min prior to adrenaline-induction measured for 5.5 min by turbidometric analysis; type: functional, cell-free

With `Cl.O=C(c1cccnc1)N1CCN(c2ncccn2)CC1` the inhibition (Platelet [1]) was “Active”, the Activity [2] was 76% and the inhibition (Platelet [3]) was “Active”. The Activity [4] was 40%, the Activity [5] was 20% and the Activity [6] was 74%. For the same compound, the inhibition (Platelet [7]) was “Active”, the inhibition (Platelet [8]) was “Active” and the Activity [9] was 13%. The inhibition (Platelet [10]) was “Active”, the inhibition (Platelet [11]) was “Active” and the inhibition (Platelet [12]) was “Active”. For the same compound, the inhibition (Platelet [13]) was “Active”, the Activity [14] was 58% and the Activity [15] was 72%.
In the case of `O=C(c1ccc[n+](Cc2ccc(Br)cc2)c1)N1CCN(c2ccccc2Cl)CC1.[Br-]`, the inhibition (Platelet [16]) is reported as “Active”, the Activity [17] is reported as 74% and the Activity [18] is reported as 67%. For the same compound, the inhibition (Platelet [3]) was “Active”, the inhibition (Platelet [19]) was “Active” and the Activity [20] was 84%. The Activity [21] was 84%, the Activity [22] was 77% and the Activity [23] was 68%. For the same compound, the inhibition (Platelet [24]) was “Active”, the inhibition (Platelet [25]) was “Active” and the Activity [6] was 69%. For the same compound, the inhibition (Platelet [26]) was “Active”, the inhibition (Platelet [8]) was “Active” and the inhibition (Platelet [27]) was “Active”. The Activity [28] was 84%, the Activity [29] was 52% and the inhibition (Platelet [30]) was “Active”. The Activity [31] was 78% and the inhibition (Platelet [32]) was “Active”.
